Measurements published in US5424456A, “N-arylalkylderivatives of 2-aminomethyl-2,3-dihydro-1,4-benzodioxine and the process of preparation thereof” (Vyzkumny Ustav Pro Farmacii A Biochemii s.p., priority 1991, dated 1995).
Read-outs that look alike come from different tables or passages of the source.

Columns and labels:
blood pressure = assay: Hypotensive activity, pentobarbital anaesthesized rabbits; type: in vivo, rabbit
Text: a) The blood pressure of pentobarbital anaesthesized rabbits was registered invasively in arteria femoralis. The average decrease in systolic (SBP) and diastolic (DBP) blood pressure expressed in per cents of the starting blood pressure level after intravenous and oral administration is shown in Tables 3 and 4.

calcium channel = molecular target: T1, calcium channel (Rattus norvegicus, UniProt P22002); assay: Calcium channel blocking activity, K+ depolarization-induced contraction of helically cut rat aortic strip; conditions: Krebs-Henselheit solution, 37° C., cumulative doses, read-out: IC50 (50% decrease of contraction of the aortic strip)
T1 construct: helically cut rat aortic strip; from tissue; host or cells: rat aorta (helically cut strip)
T1 sequence (P22002 whole entry): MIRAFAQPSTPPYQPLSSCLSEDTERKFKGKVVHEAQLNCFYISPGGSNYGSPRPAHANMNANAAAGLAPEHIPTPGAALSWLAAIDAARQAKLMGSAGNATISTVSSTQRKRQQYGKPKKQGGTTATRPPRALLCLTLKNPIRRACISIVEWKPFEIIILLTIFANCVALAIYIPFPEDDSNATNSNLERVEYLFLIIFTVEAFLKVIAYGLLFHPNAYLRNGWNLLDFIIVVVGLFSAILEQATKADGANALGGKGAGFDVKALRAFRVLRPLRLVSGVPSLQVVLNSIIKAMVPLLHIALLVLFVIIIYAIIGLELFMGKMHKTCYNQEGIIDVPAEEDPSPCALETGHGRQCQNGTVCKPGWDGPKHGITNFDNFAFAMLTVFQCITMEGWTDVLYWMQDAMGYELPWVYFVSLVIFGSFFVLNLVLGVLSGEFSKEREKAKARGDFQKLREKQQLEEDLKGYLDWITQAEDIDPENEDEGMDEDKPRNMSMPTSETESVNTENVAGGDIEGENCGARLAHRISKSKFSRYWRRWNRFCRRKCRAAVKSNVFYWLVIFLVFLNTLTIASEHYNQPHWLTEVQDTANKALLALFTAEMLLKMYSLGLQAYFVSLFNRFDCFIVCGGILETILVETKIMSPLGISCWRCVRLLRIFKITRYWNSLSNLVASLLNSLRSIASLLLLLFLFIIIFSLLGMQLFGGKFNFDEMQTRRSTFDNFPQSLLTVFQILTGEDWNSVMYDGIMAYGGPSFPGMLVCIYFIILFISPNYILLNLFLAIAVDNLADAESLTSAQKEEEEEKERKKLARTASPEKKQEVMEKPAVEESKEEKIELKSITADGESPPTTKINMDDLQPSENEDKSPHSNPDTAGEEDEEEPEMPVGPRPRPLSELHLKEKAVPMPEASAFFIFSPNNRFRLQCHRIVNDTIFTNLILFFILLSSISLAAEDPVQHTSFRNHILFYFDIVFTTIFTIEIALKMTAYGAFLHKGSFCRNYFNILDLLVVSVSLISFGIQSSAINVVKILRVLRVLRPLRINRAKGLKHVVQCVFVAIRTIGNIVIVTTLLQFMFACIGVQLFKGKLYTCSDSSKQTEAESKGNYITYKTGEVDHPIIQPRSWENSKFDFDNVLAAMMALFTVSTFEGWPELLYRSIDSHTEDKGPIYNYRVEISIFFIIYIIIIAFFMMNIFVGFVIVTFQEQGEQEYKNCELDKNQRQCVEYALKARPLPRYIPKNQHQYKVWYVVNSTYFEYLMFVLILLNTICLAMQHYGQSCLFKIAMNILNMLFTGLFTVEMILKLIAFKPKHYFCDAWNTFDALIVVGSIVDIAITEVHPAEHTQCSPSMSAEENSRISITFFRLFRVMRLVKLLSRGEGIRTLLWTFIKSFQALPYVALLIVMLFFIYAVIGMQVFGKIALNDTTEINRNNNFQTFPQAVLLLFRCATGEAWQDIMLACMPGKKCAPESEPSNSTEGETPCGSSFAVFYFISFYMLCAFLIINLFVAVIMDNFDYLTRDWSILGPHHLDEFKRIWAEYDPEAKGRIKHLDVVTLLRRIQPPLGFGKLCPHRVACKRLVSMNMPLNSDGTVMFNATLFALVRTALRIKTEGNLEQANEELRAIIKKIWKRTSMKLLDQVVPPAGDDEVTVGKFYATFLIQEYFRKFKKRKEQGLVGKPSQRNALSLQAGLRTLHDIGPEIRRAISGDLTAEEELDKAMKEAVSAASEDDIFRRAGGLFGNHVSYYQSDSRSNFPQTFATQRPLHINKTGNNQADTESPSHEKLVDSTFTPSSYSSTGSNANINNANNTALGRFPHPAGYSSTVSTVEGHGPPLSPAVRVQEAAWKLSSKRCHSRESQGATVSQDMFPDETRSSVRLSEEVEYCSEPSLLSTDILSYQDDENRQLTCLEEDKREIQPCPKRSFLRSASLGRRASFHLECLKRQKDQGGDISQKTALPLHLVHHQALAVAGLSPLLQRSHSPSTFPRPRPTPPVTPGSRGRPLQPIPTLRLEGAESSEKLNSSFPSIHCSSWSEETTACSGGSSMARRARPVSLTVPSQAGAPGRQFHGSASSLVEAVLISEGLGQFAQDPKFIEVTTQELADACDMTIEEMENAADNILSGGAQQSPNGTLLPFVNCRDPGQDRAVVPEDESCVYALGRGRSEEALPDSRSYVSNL
T1 sequence (P54290 25-1091 partner): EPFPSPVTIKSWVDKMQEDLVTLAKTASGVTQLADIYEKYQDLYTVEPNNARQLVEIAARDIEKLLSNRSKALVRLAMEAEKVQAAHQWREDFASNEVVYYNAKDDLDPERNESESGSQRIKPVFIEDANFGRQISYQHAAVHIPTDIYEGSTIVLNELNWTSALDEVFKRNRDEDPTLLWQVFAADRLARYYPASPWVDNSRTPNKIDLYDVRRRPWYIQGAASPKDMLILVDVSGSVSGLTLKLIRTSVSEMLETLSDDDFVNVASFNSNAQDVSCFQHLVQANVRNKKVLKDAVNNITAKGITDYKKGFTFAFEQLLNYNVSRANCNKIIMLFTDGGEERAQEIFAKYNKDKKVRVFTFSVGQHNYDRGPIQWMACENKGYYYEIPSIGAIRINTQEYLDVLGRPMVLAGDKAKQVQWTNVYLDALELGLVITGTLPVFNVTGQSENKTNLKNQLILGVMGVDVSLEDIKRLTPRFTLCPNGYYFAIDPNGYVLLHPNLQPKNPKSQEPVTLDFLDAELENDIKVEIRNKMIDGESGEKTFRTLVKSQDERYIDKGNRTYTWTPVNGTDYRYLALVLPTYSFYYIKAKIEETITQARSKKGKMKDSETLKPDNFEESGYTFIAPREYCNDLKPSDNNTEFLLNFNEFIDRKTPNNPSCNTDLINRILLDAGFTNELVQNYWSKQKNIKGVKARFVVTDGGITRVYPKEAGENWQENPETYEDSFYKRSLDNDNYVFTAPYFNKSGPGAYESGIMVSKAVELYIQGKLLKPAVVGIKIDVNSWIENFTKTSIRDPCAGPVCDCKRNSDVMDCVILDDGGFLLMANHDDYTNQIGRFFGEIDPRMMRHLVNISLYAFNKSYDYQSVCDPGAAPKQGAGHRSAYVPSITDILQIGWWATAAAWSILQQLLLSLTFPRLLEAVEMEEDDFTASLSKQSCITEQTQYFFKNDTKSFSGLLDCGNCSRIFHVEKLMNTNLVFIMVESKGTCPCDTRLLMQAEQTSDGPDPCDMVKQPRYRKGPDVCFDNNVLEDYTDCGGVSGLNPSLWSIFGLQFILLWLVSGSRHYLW
Method: The calcium channel blocking activity of the compounds was tested using a helically cut rat aortic strip in Krebs-Henselheit solution at 37° C., bubbled with a mixture of 95% O2 and 5% CO2. The isometrically registered contractions were induced by K^(+). depolarization. The test compounds were applied in a cumulative doses and the vasodilating activity thereof was expressed in calculated concentration of the test compound, causing 50% decrease of contraction of the aortic strip (IC50).

intraocular pressure = assay: Effect on the intraocular pressure; type: in vivo, rabbit; conditions: rabbits, topical intraocular administration
α-adrenergic [1] = assay: α-adrenergic blocking activity, postdecapitation muscular contractions in rats; type: in vivo, rat; conditions: i.v., 4.6 mg/kg, 30 minutes prior to decapitation
Method: b) The α-adrenergic blocking activity of compounds VUFB 17951 and VUFB 17959 was also shown in the test of influencing the postdecapitation muscular contractions in rats. The test compounds were administered intravenously in the dose of 4.6 mg/kg for VUFB 17951 and […] for VUFB 17959.

α-adrenergic [2] = molecular target: T2, α-adrenergic (Rattus norvegicus, UniProt P23944); assay: α-adrenergic blocking activity, norepinephrine-induced contraction of helically cut rat aortic strip; conditions: 37° C., cumulative doses, read-out: IC50 (concentration causing 50% relaxation)
T2 construct: helically cut rat aortic strip; from tissue; host or cells: rat aorta (helically cut strip)
T2 sequence (P23944 1-561): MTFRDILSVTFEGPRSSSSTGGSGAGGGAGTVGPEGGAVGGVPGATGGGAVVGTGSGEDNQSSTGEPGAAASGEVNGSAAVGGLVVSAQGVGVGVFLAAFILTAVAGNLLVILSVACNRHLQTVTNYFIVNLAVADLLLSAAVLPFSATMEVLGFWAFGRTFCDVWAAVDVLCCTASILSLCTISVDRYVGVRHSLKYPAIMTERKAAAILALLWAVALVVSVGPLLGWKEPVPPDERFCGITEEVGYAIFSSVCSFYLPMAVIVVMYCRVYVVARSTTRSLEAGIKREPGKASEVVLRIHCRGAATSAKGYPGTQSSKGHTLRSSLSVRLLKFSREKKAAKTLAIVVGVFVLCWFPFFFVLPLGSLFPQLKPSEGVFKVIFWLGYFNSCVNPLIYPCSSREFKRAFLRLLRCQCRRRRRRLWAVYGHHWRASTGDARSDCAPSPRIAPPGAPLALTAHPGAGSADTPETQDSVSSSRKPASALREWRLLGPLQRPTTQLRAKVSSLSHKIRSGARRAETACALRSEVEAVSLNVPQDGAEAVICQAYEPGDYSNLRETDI
Method: a) The α-adrenergic blocking activity of the compounds was tested using a helically cut rat aortic strip in a Krebs-Henselheit solution at 37° C., bubbled with a mixture of 95% O2 and 5% CO2. Norepinephrine induced contractions were detected isometrically. The compounds were added in cumulative doses and the relaxing activity was expressed in per cents of the maximum norepinephrine contraction.

[3] = system: rat peripheral venous thrombosis; assay: Antithrombotic activity, rat peripheral venous thrombosis in closed abdominal part of vena cava; type: in vivo; conditions: rats, read-out: statistically significant effective dose (mass of thrombi)
Method: The antithrombotic activity of the test compounds was established using the model of rat peripheral venous thrombosis in a closed abdominal part of vena cava. The thrombus was induced by intravenous administration of hypotonic solution of sodium chloride. The thrombus was freed 10 minutes after induction and weighted. The mass of thrombi in control animals was compared to the mass of thrombi of animals administered by the test compound. The statistically significant effective dose for compound VUFB 17951 was 0.5 mg/kg intravenously and 5 mg/kg orally and for the compound VUFB 17959 0.25 mg/kg and 1.0 mg/kg, respectively. The corresponding dose of a standard (Cilostazol, generic name, Merck index, 11th Edition, 2277) was 25 mg/kg orally.

[4] = p.o., 5.0 mg/kg, value 1 of 5 (heads 30/60/120/180 min)
[5] = p.o., 5.0 mg/kg, value 2 of 5 (heads 30/60/120/180 min)
[6] = p.o., 5.0 mg/kg, value 3 of 5 (heads 30/60/120/180 min)
[7] = p.o., 5.0 mg/kg, value 4 of 5 (heads 30/60/120/180 min)
[8] = p.o., 5.0 mg/kg, value 5 of 5 (heads 30/60/120/180 min)
[9] = p.o., 10.0 mg/kg, value 1 of 5 (heads 30/60/120/180 min)
[10] = p.o., 10.0 mg/kg, value 2 of 5 (heads 30/60/120/180 min)
[11] = p.o., 10.0 mg/kg, value 3 of 5 (heads 30/60/120/180 min)
[12] = p.o., 10.0 mg/kg, value 4 of 5 (heads 30/60/120/180 min)
[13] = p.o., 10.0 mg/kg, value 5 of 5 (heads 30/60/120/180 min)

IC50 (calcium channel): 18 µM | IC50 (α-adrenergic [2]): 6 µM
SMILES: COc1ccc(C(C#N)(CCCNCC2COc3ccccc3O2)C(C)C)cc1OC (racemic) [VUFB 17951, 5-(2,3-Dihydro-1,4-benzodioxin-2-ylmethylamino)-2-(3,4-dimethoxyphenyl)-2-isopropyl valeronitrile]
decrease in diastolic blood pressure (DBP) (blood pressure; i.v., 0.2 mg/kg, 1 min): -36 per cents | decrease in systolic blood pressure (SBP) (blood pressure; i.v., 0.2 mg/kg, 1 min): -28 per cents | decrease in diastolic blood pressure (DBP) (blood pressure; i.v., 0.2 mg/kg, 5 min): -23 per cents | decrease in systolic blood pressure (SBP) (blood pressure; i.v., 0.2 mg/kg, 5 min): -24 per cents | decrease in diastolic blood pressure (DBP) (blood pressure; i.v., 0.2 mg/kg, 30 min): -24 per cents | decrease in systolic blood pressure (SBP) (blood pressure; i.v., 0.2 mg/kg, 30 min): -25 per cents | decrease in diastolic blood pressure (DBP) (blood pressure; i.v., 0.2 mg/kg, 60 min): -16 per cents | decrease in systolic blood pressure (SBP) (blood pressure; i.v., 0.2 mg/kg, 60 min): -18 per cents | decrease in diastolic blood pressure (DBP) (blood pressure; i.v., 0.2 mg/kg, 180 min): -17 per cents | decrease in systolic blood pressure (SBP) (blood pressure; i.v., 0.2 mg/kg, 180 min): -13 per cents | decrease in diastolic blood pressure (DBP) (blood pressure; i.v., 1.0 mg/kg, 1 min): -56 per cents | decrease in systolic blood pressure (SBP) (blood pressure; i.v., 1.0 mg/kg, 1 min): -47 per cents | decrease in diastolic blood pressure (DBP) (blood pressure; i.v., 1.0 mg/kg, 5 min): -36 per cents | decrease in systolic blood pressure (SBP) (blood pressure; i.v., 1.0 mg/kg, 5 min): -39 per cents | decrease in diastolic blood pressure (DBP) (blood pressure; i.v., 1.0 mg/kg, 30 min): -30 per cents | decrease in systolic blood pressure (SBP) (blood pressure; i.v., 1.0 mg/kg, 30 min): -35 per cents | decrease in diastolic blood pressure (DBP) (blood pressure; i.v., 1.0 mg/kg, 60 min): -33 per cents | decrease in systolic blood pressure (SBP) (blood pressure; i.v., 1.0 mg/kg, 60 min): -35 per cents | decrease in diastolic blood pressure (DBP) (blood pressure; i.v., 1.0 mg/kg, 180 min): -24 per cents | decrease in systolic blood pressure (SBP) (blood pressure; i.v., 1.0 mg/kg, 180 min): -17 per cents | decrease in diastolic blood pressure (DBP) (blood pressure; [4]): -6 per cents | decrease in systolic blood pressure (SBP) (blood pressure; [4]): -6 per cents | decrease in diastolic blood pressure (DBP) (blood pressure; [5]): -12 per cents | decrease in systolic blood pressure (SBP) (blood pressure; [5]): -14 per cents | decrease in diastolic blood pressure (DBP) (blood pressure; [6]): -18 per cents | decrease in systolic blood pressure (SBP) (blood pressure; [6]): -17 per cents | decrease in diastolic blood pressure (DBP) (blood pressure; [7]): -18 per cents | decrease in systolic blood pressure (SBP) (blood pressure; [7]): -13 per cents | decrease in diastolic blood pressure (DBP) (blood pressure; [8]): -18 per cents | decrease in systolic blood pressure (SBP) (blood pressure; [8]): -15 per cents | decrease in diastolic blood pressure (DBP) (blood pressure; [9]): -6 per cents | decrease in systolic blood pressure (SBP) (blood pressure; [9]): -5 per cents | decrease in diastolic blood pressure (DBP) (blood pressure; [10]): -11 per cents | decrease in systolic blood pressure (SBP) (blood pressure; [10]): -9 per cents | decrease in diastolic blood pressure (DBP) (blood pressure; [11]): -18 per cents | decrease in systolic blood pressure (SBP) (blood pressure; [11]): -12 per cents | decrease in diastolic blood pressure (DBP) (blood pressure; [12]): -20 per cents | decrease in systolic blood pressure (SBP) (blood pressure; [12]): -13 per cents | decrease in diastolic blood pressure (DBP) (blood pressure; [13]): -17 per cents | decrease in systolic blood pressure (SBP) (blood pressure; [13]): -12 per cents | lowering of the intraocular pressure (intraocular pressure): lowered significantly the intraocular pressure | decrease in number of postdecapitation contractions (α-adrenergic [1]): highly significant decrease in number of postdecapitation contractions | minimal effective dose ([3]; iv, intravenously): 0.5 mg/kg | minimal effective dose ([3]; po, orally): 5 mg/kg
